# What was measured:
# [1] = system: βCatenin-BCL9; experiment: ELISA based protein-protein interaction assay; type: binding; details: inhibition class of the βCatenin-BCL9 interaction
# Procedure: In vitro ELISA-based Protein-protein Interaction Assay
# Protein Production in Bacteria
# cDNAs including the binding domains of Lgs and βCatenin were fused downstream of glutathione-S-transferase (GST) cDNA in pGEX-4T inducible bacterial expression vector (Pharmacia). Fusion proteins were produced in BL21 bacteria (e.g. Stratagene) following manufacturer's recommendation.
# To isolate the produced fusions protein bacteria were lysed in sonication buffer (10 mM Tris HCl pH 8.0, 150 mM NaCl, 1 mM EDTA, 1.5% sarkosyl, 2% Triton-X-100, 1 mM DTT and protease inhibitors), followed by short sonication on ice (e.g. 3 times 20 seconds at middle power) and centrifugation. Cleared supernatants were incubated under gentle rotation with glutathione beads (Amersham Pharmacia) for 2 hrs at 4° C. Finally, beads were washed several time in washing buffer (20 mM Tris pH 8.0, 200 mM NaCl, 1 mM EDTA, 1 mM DTT, 1 mM MgCl2, 0.5% NP40), and stored in storage buffer (20 mM Tris pH 8.0, 200 mM NaCl, 1 mM EDTA, 1 mM DTT, 1 mM MgCl2, 10% glycerol, 0.5% NP40, and proteinase inhibitors). The quality of the preparations was checked by SDS-gel electrophoresis by standard methods well known by persons skilled in the art. […]
# [2] = system: Wnt pathway; experiment: Cell Assay (CA): inhibition of Wnt activity in cancer cells, Tcf reporter gene; type: cell-based; details: inhibition class in the Cell Assay
# Excerpt: Inhibition of Wnt Activity in Cancer Cells
# The effect of β-catenin/BCL9 inhibitors identified in the ELISA-based protein-protein interaction assay on the Wnt pathway can be evaluated in a cell culture system using a reporter gene responsive to the Tcf/Lef family of transcription factors or by quantitative analysis of Wnt target genes in appropriate cell lines.
# A reporter gene is a construct which comprises a readily detectable or assayable gene such β-galactosidase, green fluorescent protein, chloramphenicol acetyltransferase or luciferase, linked in cis to a transcription factor response element and a minimal promoter. Depending on the expression vectors used, this protocol can be applied, e.g. for mammalian as well as for Drosophila cell lines. For instance, colon cancer cells with constitutively active Wnt pathway like DLD-1 or SW620 (ATCC) are a well suitable system. Hereby, a Tcf-4 driven luciferase reporter plasmid (i.e. TOP-FLASH, Upstate biotechnology, New York, USA) is transiently or stably transfected into cells known in the art. Any means for introducing genetic material into cells can be used, including but not limited to infection, electroporation or transfection. For instance, to introduce DNA into DLD-1 cells, a lipofection agent like the Lipofectamine transfection reagent (Life Technologies, Inc.) can be used. By transient transfection protocols, a second reporter gene, e.g. the renilla luciferase reporter plasmid pRL-SV40 (Promega Corporation, Madison USA), needs to be co-transfected to normalize for transfection efficiency. Drugs are added to the media 24 h after trans-fection (transient transfection) or 24 h after seeding of the cells (stably transfected cells). Cell extracts are prepared 24 to 48 h later and assayed for reporter gene activity as described by the manufacturer (eg. for luciferase activity: Promega Corporation). Compounds reducing reporter gene activity more than 50% compared to solvent alone treated cells are considered as hits. In parallel, toxicity can be assessed for instance by the yellow tetrazolium salt cell proliferation assay (MTT) assay.
smiles,measurement,setting,value
O=[N+]([O-])c1ccc(N/N=C/c2ccc(Br)cc2)c(S(=O)(=O)Nc2ccccc2Cl)c1 [TGC0011421],ELISA,[1],2.5
same,CA,[2],4 (61-80% inhibition)
O=[N+]([O-])c1ccc(N/N=C/c2ccc(CN3CCOCC3)cc2)c(S(=O)(=O)Nc2ccccc2Cl)c1 [TGC0011404],ELISA,[1],3 (41-60% inhibition)
same,CA,[2],4 (61-80% inhibition)
O=[N+]([O-])c1ccc(N/N=C/c2cccc(OCCN3CCOCC3)c2)c(S(=O)(=O)Nc2ccccc2Cl)c1 [TGC0011420],ELISA,[1],1 (0-20% inhibition)
same,CA,[2],2 (21-40% inhibition)
O=[N+]([O-])c1ccc(N/N=C/c2ccc(O)c(O)c2)c(S(=O)(=O)Nc2ccccc2Cl)c1 [TGC0008709],ELISA,[1],3.5
same,CA,[2],4 (61-80% inhibition)
O=C(NNc1ccc([N+](=O)[O-])cc1S(=O)(=O)Nc1ccccc1Cl)c1cc(Cl)cc(Cl)c1 [TGC0011568],ELISA,[1],1.5
same,CA,[2],4 (61-80% inhibition)
N#Cc1ccc(Cl)c(NS(=O)(=O)c2ccccc2Br)c1 [TGC0011492],ELISA,[1],1 (0-20% inhibition)
same,CA,[2],1 (0-20% inhibition)
Cc1nn(-c2ccc(F)cc2)c(Cl)c1/C=N\Nc1ccc([N+](=O)[O-])cc1S(=O)(=O)Nc1ccccc1Cl [TGC0010674],ELISA,[1],2.5
O=S(=O)(Nc1cc(S(=O)(=O)N2CCOCC2)ccc1Cl)c1ccccc1Br [TGC0011498],ELISA,[1],1 (0-20% inhibition)
same,CA,[2],1 (0-20% inhibition)
COC(=O)c1ccc(NS(=O)(=O)c2ccccc2Br)c(Cl)c1 [TGC0011499],ELISA,[1],1 (0-20% inhibition)
same,CA,[2],1 (0-20% inhibition)
O=C(O)c1ccc(CNNc2ccc([N+](=O)[O-])cc2S(=O)(=O)Nc2ccccc2Cl)cc1 [TGC0011589],ELISA,[1],5 (81-100% inhibition)
same,CA,[2],4 (61-80% inhibition)
O=[N+]([O-])c1ccc(NN=C(Cc2ccccc2)Cc2ccccc2)c(S(=O)(=O)Nc2ccccc2Cl)c1 [TGC0010661],ELISA,[1],2 (21-40% inhibition)
same,CA,[2],3 (41-60% inhibition)
Cn1cncc1C#Cc1ccccc1S(=O)(=O)Nc1ccccc1Cl [TGC0012268],CA,[2],2.5
Cc1ncc(CO)c(/C=N/Nc2ccc([N+](=O)[O-])cc2S(=O)(=O)Nc2ccccc2Cl)c1O [TGC0010626],ELISA,[1],3 (41-60% inhibition)
same,CA,[2],4.5
COC(=O)c1ccc(C(=O)NNc2ccc([N+](=O)[O-])cc2S(=O)(=O)Nc2ccccc2Cl)cc1 [TGC0011562],ELISA,[1],2 (21-40% inhibition)
same,CA,[2],1.5
O=[N+]([O-])c1ccc(N/N=C/c2cccc(Oc3ccccc3)c2)c(S(=O)(=O)Nc2ccccc2Cl)c1 [TGC0010583],ELISA,[1],2 (21-40% inhibition)
same,CA,[2],4 (61-80% inhibition)
O=[N+]([O-])c1ccc(N/N=C/c2ccncc2)c(S(=O)(=O)Nc2ccccc2Cl)c1 [TGC0011403],ELISA,[1],2 (21-40% inhibition)
same,CA,[2],4 (61-80% inhibition)
O=[N+]([O-])c1ccc(N/N=C/c2ccccc2-c2cccnc2)c(S(=O)(=O)Nc2ccccc2Cl)c1 [TGC0011409],ELISA,[1],3.5
same,CA,[2],4.5
CC(=O)Nc1ccc(Cl)c(NS(=O)(=O)c2ccccc2Br)c1 [TGC0011502],ELISA,[1],1 (0-20% inhibition)
same,CA,[2],1 (0-20% inhibition)
O=C1Nc2ccccc2/C1=N/Nc1ccc([N+](=O)[O-])cc1S(=O)(=O)Nc1ccccc1Cl [TGC0010663],ELISA,[1],2.5
O=[N+]([O-])c1ccc(N/N=C/c2ccc(Oc3cccnc3)cc2)c(S(=O)(=O)Nc2ccccc2Cl)c1 [TGC0011406],CA,[2],4 (61-80% inhibition)
O=[N+]([O-])c1ccc(N/N=C/c2cc(Cl)cc(Cl)c2)c(S(=O)(=O)Nc2ccccc2Cl)c1 [TGC0010536],ELISA,[1],2 (21-40% inhibition)
same,CA,[2],5 (81-100% inhibition)
C[n+]1ccccc1/C=N/Nc1ccc([N+](=O)[O-])cc1S(=O)(=O)Nc1ccccc1Cl.[I-] [TGC0011514],ELISA,[1],1 (0-20% inhibition)
same,CA,[2],1 (0-20% inhibition)
COc1ccc(/C=N/Nc2ccc([N+](=O)[O-])cc2S(=O)(=O)Nc2ccccc2Cl)cc1OC [TGC0011564],ELISA,[1],1 (0-20% inhibition)
same,CA,[2],3.5
O=[N+]([O-])c1ccc(NNCc2ccc(F)cc2)c(S(=O)(=O)Nc2ccccc2Cl)c1 [TGC0012257],ELISA,[1],1 (0-20% inhibition)
same,CA,[2],1.5
O=[N+]([O-])c1ccc(NNCc2ccc3nonc3c2)c(S(=O)(=O)Nc2ccccc2Cl)c1 [TGC0012260],ELISA,[1],4.5
same,CA,[2],1.5
CC(=O)Nc1ccc(S(=O)(=O)NNc2ccc([N+](=O)[O-])cc2S(=O)(=O)Nc2ccccc2Cl)cc1 [TGC0011575],ELISA,[1],1 (0-20% inhibition)
same,CA,[2],3 (41-60% inhibition)
O=S(=O)(Nc1ccccc1Cl)c1ccccc1Cl [TGC0011155],ELISA,[1],1 (0-20% inhibition)
CN1CCN(Cc2ccc(/C=N/Nc3ccc([N+](=O)[O-])cc3S(=O)(=O)Nc3ccccc3Cl)cc2)CC1 [TGC0011438],ELISA,[1],1 (0-20% inhibition)
same,CA,[2],3 (41-60% inhibition)
O=[N+]([O-])c1ccc(N/N=C/c2ccnc3ccccc23)c(S(=O)(=O)Nc2ccccc2Cl)c1 [TGC0011405],CA,[2],4.5
CC(=O)Nc1ccc(/C=N/Nc2ccc([N+](=O)[O-])cc2S(=O)(=O)Nc2ccccc2Cl)cc1 [TGC0011358],ELISA,[1],1.5
same,CA,[2],3 (41-60% inhibition)
CC/C=N/Nc1ccc([N+](=O)[O-])cc1S(=O)(=O)Nc1ccccc1Cl [TGC0011361],ELISA,[1],1 (0-20% inhibition)
same,CA,[2],3.5
Cc1cc(/C=N\Nc2ccc([N+](=O)[O-])cc2S(=O)(=O)Nc2ccccc2Cl)c(C)n1-c1ccc(Cl)cc1 [TGC0010673],ELISA,[1],1 (0-20% inhibition)
same,CA,[2],4.5
O=[N+]([O-])c1ccc(N/N=C/c2cccnc2)c(S(=O)(=O)Nc2ccccc2Cl)c1 [TGC0011402],ELISA,[1],2 (21-40% inhibition)
same,CA,[2],4 (61-80% inhibition)
O=[N+]([O-])c1ccc(NNCc2cc(F)cc(F)c2)c(S(=O)(=O)Nc2ccccc2Cl)c1 [TGC0012266],ELISA,[1],2.5
same,CA,[2],1.5
CS(=O)(=O)c1ccc(S(=O)(=O)NNc2ccc([N+](=O)[O-])cc2S(=O)(=O)Nc2ccccc2Cl)cc1 [TGC0011577],ELISA,[1],4 (61-80% inhibition)
same,CA,[2],1 (0-20% inhibition)
O=C(Cc1ccc(Cl)cc1)Nc1ccc(N2CCOCC2)c(S(=O)(=O)Nc2ccccc2Cl)c1 [TGC0011574],ELISA,[1],3 (41-60% inhibition)
same,CA,[2],2.5
CC(C)C/C=N/Nc1ccc([N+](=O)[O-])cc1S(=O)(=O)Nc1ccccc1Cl [TGC0012273],CA,[2],3.5
O=[N+]([O-])c1ccc(N/N=C/c2cccc(CN3CCOCC3)c2)c(S(=O)(=O)Nc2ccccc2Cl)c1 [TGC0011419],ELISA,[1],1.5
same,CA,[2],3 (41-60% inhibition)
Nc1ccc(NC(=O)Cc2ccc(Cl)cc2)c(S(=O)(=O)Nc2ccccc2Cl)c1 [TGC0011573],ELISA,[1],3 (41-60% inhibition)
same,CA,[2],1 (0-20% inhibition)
O=[N+]([O-])c1ccc(NNS(=O)(=O)c2ccc(Cl)cc2)c(S(=O)(=O)Nc2ccccc2Cl)c1 [TGC0011576],ELISA,[1],3 (41-60% inhibition)
same,CA,[2],5 (81-100% inhibition)
O=S(=O)(Nc1ccccc1Cl)c1ccc(Cl)c(NS(=O)(=O)c2ccccc2Br)c1 [TGC0011493],ELISA,[1],1 (0-20% inhibition)
same,CA,[2],1 (0-20% inhibition)
CCCCCC#C/C=N/Nc1ccc([N+](=O)[O-])cc1S(=O)(=O)Nc1ccccc1Cl [TGC0012276],CA,[2],4.5
O=S(=O)(Nc1ccccc1Cl)c1cccc(Br)c1 [TGC0011158],ELISA,[1],1 (0-20% inhibition)
O=S(=O)(Nc1ccccc1Cl)c1ccccc1Br [TGC0011157],ELISA,[1],1 (0-20% inhibition)
C[n+]1cccc(/C=N/Nc2ccc([N+](=O)[O-])cc2S(=O)(=O)Nc2ccccc2Cl)c1.[I-] [TGC0011513],CA,[2],1 (0-20% inhibition)
COc1cc(Cl)cc(/C=N/Nc2ccc([N+](=O)[O-])cc2S(=O)(=O)Nc2ccccc2Cl)c1OCC(=O)O [TGC0011360],ELISA,[1],4.5
